Measurements published in ChEMBL document CHEMBL5723582, “Data for DCP probe T-10430” (2024).

Assays:
[1] = biological target: Leukotriene B4 receptor 1 (Homo sapiens, UniProt Q15722); assay: IP-One assay (LTB4R), agonist mode at up to 50 µM; format: functional; parameters: compound concentration < 50 uM
[2] = biological target: Alpha-1A adrenergic receptor (Homo sapiens) (UniProt P35348); assay: RLU of ADRA1A at 1.0 µM in the […] PRESTO-Tango GPCRome screen; conditions: Compound concentration 1.0 uM
[3] = biological target: Alpha-1B adrenergic receptor (Homo sapiens) (UniProt P35368); assay: RLU of ADRA1B at 1.0 µM in the […] PRESTO-Tango GPCRome screen; conditions: Compound concentration 1.0 uM
[4] = biological target: Alpha-1D adrenergic receptor (Homo sapiens) (UniProt P25100); assay: RLU of ADRA1D at 1.0 µM in the […] PRESTO-Tango GPCRome screen; conditions: Compound concentration 1.0 uM
[5] = biological target: Vasopressin V1a receptor (Homo sapiens) (UniProt P37288); assay: RLU of AVPR1A at 1.0 µM in the […] PRESTO-Tango GPCRome screen; conditions: Compound concentration 1.0 uM
[6] = biological target: Vasopressin V1b receptor (Homo sapiens) (UniProt P47901); assay: RLU of AVPR1B at 1.0 µM in the […] PRESTO-Tango GPCRome screen; conditions: Compound concentration 1.0 uM
[7] = biological target: Cholecystokinin receptor type A (Homo sapiens) (UniProt P32238); assay: RLU of CCKAR at 1.0 µM in the […] PRESTO-Tango GPCRome screen; conditions: Compound concentration 1.0 uM
[8] = biological target: Cannabinoid receptor 1 (Homo sapiens) (UniProt P21554); assay: RLU of CNR1 at 1.0 µM in the […] PRESTO-Tango GPCRome screen; conditions: Compound concentration 1.0 uM
[9] = biological target: Corticotropin-releasing factor receptor 1 (Homo sapiens) (UniProt P34998); assay: RLU of CRHR1 at 1.0 µM in the […] PRESTO-Tango GPCRome screen; conditions: Compound concentration 1.0 uM
[10] = biological target: D(1A) dopamine receptor (Homo sapiens) (UniProt P21728); assay: RLU of DRD1 at 1.0 µM in the […] PRESTO-Tango GPCRome screen; conditions: Compound concentration 1.0 uM
[11] = biological target: Adhesion G protein-coupled receptor L4 (Homo sapiens) (UniProt Q9HBW9); assay: RLU of ELTD1 at 1.0 µM in the […] PRESTO-Tango GPCRome screen; conditions: Compound concentration 1.0 uM
[12] = biological target: Proteinase-activated receptor 1 (Homo sapiens) (UniProt P25116); assay: RLU of F2R at 1.0 µM in the […] PRESTO-Tango GPCRome screen; conditions: Compound concentration 1.0 uM
[13] = biological target: Free fatty acid receptor 1 (Homo sapiens) (UniProt O14842); assay: RLU of FFA1 (GPR40) at 1.0 µM in the […] PRESTO-Tango GPCRome screen; conditions: Compound concentration 1.0 uM
[14] = biological target: Growth hormone-releasing hormone receptor (Homo sapiens) (UniProt Q02643); assay: RLU of GHRHR at 1.0 µM in the […] PRESTO-Tango GPCRome screen; conditions: Compound concentration 1.0 uM
[15] = biological target: Glucagon-like peptide 1 receptor (Homo sapiens) (UniProt P43220); assay: RLU of GLP1R at 1.0 µM in the […] PRESTO-Tango GPCRome screen; conditions: Compound concentration 1.0 uM
[16] = biological target: Adhesion G-protein coupled receptor D1 (Homo sapiens) (UniProt Q6QNK2); assay: RLU of GPR133 at 1.0 µM in the […] PRESTO-Tango GPCRome screen; conditions: Compound concentration 1.0 uM
[17] = biological target: Probable G-protein coupled receptor 162 (Homo sapiens) (UniProt Q16538); assay: RLU of GPR162 at 1.0 µM in the […] PRESTO-Tango GPCRome screen; conditions: Compound concentration 1.0 uM
[18] = biological target: Probable G-protein coupled receptor 34 (Homo sapiens) (UniProt Q9UPC5); assay: RLU of GPR34 at 1.0 µM in the […] PRESTO-Tango GPCRome screen; conditions: Compound concentration 1.0 uM
[19] = biological target: Adhesion G-protein coupled receptor G1 (Homo sapiens) (UniProt Q9Y653); assay: RLU of GPR56 at 1.0 µM in the […] PRESTO-Tango GPCRome screen; conditions: Compound concentration 1.0 uM
[20] = biological target: Adhesion G-protein coupled receptor G2 (Homo sapiens) (UniProt Q8IZP9); assay: RLU of GPR64 at 1.0 µM in the […] PRESTO-Tango GPCRome screen; conditions: Compound concentration 1.0 uM
[21] = biological target: Probable G-protein coupled receptor 75 (Homo sapiens) (UniProt O95800); assay: RLU of GPR75 at 1.0 µM in the […] PRESTO-Tango GPCRome screen; conditions: Compound concentration 1.0 uM
[22] = biological target: Probable G-protein coupled receptor 85 (Homo sapiens) (UniProt P60893); assay: RLU of GPR85 at 1.0 µM in the […] PRESTO-Tango GPCRome screen; conditions: Compound concentration 1.0 uM
[23] = biological target: 5-hydroxytryptamine receptor 1A (Homo sapiens) (UniProt P08908); assay: RLU of HTR1A at 1.0 µM in the Aequorin PRESTO-Tango GPCRome screen; conditions: Compound concentration 1.0 uM
[24] = biological target: Lysophosphatidic acid receptor 6 (Homo sapiens) (UniProt P43657); assay: RLU of LPAR6 at 1.0 µM in the […] PRESTO-Tango GPCRome screen; conditions: Compound concentration 1.0 uM
[25] = biological target: Mas-related G-protein coupled receptor MRG (Homo sapiens) (UniProt P35410); assay: RLU of MAS1L at 1.0 µM in the […] PRESTO-Tango GPCRome screen; conditions: Compound concentration 1.0 uM
[26] = biological target: Mas-related G-protein coupled receptor member E (Homo sapiens) (UniProt Q86SM8); assay: RLU of MRGPRE at 1.0 µM in the […] PRESTO-Tango GPCRome screen; conditions: Compound concentration 1.0 uM
[27] = biological target: Mas-related G-protein coupled receptor member G (Homo sapiens) (UniProt Q86SM5); assay: RLU of MRGPRG at 1.0 µM in the […] PRESTO-Tango GPCRome screen; conditions: Compound concentration 1.0 uM
[28] = biological target: Neuropeptides B/W receptor type 1 (Homo sapiens) (UniProt P48145); assay: RLU of NPBW1 at 1.0 µM in the […] PRESTO-Tango GPCRome screen; conditions: Compound concentration 1.0 uM
[29] = biological target: Neuropeptide Y receptor type 1 (Homo sapiens) (UniProt P25929); assay: RLU of NPY1R at 1.0 µM in the […] PRESTO-Tango GPCRome screen; conditions: Compound concentration 1.0 uM
[30] = biological target: P2Y purinoceptor 12 (Homo sapiens) (UniProt Q9H244); assay: RLU of P2RY12 at 1.0 µM in the […] PRESTO-Tango GPCRome screen; conditions: Compound concentration 1.0 uM
[31] = biological target: P2Y purinoceptor 4 (Homo sapiens) (UniProt P51582); assay: RLU of P2RY4 at 1.0 µM in the […] PRESTO-Tango GPCRome screen; conditions: Compound concentration 1.0 uM
[32] = biological target: S-geranylgeranyl-glutathione receptor P2RY8 (Homo sapiens) (UniProt Q86VZ1); assay: RLU of P2RY8 at 1.0 µM in the […] PRESTO-Tango GPCRome screen; conditions: Compound concentration 1.0 uM
[33] = biological target: Prokineticin receptor 2 (Homo sapiens) (UniProt Q8NFJ6); assay: RLU of PK2 at 1.0 µM in the […] PRESTO-Tango GPCRome screen; conditions: Compound concentration 1.0 uM
[34] = biological target: Prostaglandin E2 receptor EP2 subtype (Homo sapiens) (UniProt P43116); assay: RLU of PTGER2 at 1.0 µM in the […] PRESTO-Tango GPCRome screen; conditions: Compound concentration 1.0 uM
[35] = biological target: Sphingosine 1-phosphate receptor 5 (Homo sapiens) (UniProt Q9H228); assay: RLU of S1PR5 at 1.0 µM in the […] PRESTO-Tango GPCRome screen; conditions: Compound concentration 1.0 uM

Free fatty acid receptor 1 (Homo sapiens), sequence (O14842 whole entry): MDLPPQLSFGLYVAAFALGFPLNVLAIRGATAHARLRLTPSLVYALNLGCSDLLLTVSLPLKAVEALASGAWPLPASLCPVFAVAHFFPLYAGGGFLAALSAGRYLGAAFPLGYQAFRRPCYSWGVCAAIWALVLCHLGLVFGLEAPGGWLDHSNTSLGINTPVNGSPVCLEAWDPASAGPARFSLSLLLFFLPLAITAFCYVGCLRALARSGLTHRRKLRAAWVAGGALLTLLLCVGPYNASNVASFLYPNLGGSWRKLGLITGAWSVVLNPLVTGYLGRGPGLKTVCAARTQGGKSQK
Mas-related G-protein coupled receptor MRG (Homo sapiens), sequence (P35410 whole entry): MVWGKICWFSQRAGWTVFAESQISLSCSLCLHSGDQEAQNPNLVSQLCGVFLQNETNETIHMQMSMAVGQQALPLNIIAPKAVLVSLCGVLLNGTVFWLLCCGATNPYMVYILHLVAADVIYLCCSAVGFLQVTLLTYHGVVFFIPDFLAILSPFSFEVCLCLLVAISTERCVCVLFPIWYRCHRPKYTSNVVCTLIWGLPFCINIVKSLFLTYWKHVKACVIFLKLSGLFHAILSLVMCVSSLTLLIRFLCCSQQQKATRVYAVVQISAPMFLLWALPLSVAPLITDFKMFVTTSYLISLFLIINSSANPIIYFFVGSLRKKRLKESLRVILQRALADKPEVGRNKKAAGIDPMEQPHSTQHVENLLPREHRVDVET
P2Y purinoceptor 4 (Homo sapiens), sequence (P51582 whole entry): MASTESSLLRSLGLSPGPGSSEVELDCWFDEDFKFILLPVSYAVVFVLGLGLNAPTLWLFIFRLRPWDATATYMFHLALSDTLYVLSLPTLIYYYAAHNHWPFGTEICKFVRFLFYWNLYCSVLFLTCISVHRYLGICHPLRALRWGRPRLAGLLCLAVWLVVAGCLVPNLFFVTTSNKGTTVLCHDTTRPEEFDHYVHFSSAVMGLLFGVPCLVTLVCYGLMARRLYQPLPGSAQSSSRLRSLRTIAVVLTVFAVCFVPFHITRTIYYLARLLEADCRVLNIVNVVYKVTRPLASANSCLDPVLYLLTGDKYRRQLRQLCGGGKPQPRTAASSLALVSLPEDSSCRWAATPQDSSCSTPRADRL
Adhesion G-protein coupled receptor G2 (Homo sapiens), sequence (Q8IZP9 whole entry): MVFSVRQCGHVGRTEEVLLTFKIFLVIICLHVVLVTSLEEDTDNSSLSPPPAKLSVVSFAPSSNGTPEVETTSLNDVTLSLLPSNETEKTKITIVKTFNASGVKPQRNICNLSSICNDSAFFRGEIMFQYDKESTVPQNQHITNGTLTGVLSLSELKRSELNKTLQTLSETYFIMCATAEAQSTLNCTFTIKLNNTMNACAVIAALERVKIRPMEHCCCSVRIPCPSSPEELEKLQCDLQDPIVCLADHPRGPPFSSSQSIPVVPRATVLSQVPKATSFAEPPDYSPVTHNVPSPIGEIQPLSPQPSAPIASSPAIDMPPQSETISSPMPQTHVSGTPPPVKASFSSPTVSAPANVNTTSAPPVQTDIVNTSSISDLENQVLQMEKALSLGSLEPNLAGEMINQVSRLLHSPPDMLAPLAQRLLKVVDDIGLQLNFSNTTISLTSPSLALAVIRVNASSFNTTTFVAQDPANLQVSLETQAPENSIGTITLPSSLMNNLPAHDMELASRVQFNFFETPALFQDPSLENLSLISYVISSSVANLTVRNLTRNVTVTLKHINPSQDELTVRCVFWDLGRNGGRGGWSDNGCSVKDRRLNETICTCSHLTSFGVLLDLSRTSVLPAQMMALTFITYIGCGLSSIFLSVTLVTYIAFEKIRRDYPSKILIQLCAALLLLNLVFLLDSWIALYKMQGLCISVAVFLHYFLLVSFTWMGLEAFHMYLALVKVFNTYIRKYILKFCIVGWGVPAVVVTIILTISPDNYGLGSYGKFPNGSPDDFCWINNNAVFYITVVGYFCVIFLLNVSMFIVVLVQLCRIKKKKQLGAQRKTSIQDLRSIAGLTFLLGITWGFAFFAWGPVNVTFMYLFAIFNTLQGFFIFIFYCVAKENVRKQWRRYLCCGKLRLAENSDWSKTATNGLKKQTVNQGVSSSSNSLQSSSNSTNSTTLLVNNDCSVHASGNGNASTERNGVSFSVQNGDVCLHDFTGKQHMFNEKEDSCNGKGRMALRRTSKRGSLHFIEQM
Probable G-protein coupled receptor 34 (Homo sapiens), sequence (Q9UPC5 whole entry): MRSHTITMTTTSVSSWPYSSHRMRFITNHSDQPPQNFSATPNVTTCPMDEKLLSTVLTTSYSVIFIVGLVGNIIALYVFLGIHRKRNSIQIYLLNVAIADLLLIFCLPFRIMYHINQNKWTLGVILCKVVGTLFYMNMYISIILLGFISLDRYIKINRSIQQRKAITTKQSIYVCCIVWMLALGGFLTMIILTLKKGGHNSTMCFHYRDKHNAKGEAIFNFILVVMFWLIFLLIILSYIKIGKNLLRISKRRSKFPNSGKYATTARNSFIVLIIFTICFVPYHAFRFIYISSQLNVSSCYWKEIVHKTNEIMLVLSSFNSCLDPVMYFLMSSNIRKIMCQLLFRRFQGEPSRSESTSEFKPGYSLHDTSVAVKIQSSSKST
Vasopressin V1b receptor (Homo sapiens), sequence (P47901 whole entry): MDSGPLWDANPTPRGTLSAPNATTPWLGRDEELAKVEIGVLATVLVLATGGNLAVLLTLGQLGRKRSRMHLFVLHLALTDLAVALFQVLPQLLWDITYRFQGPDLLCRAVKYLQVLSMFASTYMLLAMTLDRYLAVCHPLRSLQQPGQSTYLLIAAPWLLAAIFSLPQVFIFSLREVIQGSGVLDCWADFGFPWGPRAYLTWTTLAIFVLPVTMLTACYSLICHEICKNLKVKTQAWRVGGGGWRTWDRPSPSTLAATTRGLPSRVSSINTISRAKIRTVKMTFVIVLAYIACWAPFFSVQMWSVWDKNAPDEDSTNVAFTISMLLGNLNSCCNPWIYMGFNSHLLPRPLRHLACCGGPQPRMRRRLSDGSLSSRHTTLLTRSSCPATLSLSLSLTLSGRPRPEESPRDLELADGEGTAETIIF
Growth hormone-releasing hormone receptor (Homo sapiens), sequence (Q02643 whole entry): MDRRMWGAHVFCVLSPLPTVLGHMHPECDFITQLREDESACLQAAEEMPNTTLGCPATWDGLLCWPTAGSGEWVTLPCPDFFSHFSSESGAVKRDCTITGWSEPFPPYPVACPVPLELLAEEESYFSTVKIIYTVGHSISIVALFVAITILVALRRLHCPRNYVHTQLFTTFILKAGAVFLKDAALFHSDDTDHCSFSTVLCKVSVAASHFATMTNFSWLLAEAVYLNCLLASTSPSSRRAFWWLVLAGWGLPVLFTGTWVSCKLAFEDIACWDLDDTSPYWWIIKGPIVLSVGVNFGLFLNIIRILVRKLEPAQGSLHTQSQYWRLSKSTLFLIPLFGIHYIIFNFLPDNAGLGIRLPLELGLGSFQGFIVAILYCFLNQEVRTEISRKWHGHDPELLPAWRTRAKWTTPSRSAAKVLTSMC
Probable G-protein coupled receptor 85 (Homo sapiens), sequence (P60893 whole entry): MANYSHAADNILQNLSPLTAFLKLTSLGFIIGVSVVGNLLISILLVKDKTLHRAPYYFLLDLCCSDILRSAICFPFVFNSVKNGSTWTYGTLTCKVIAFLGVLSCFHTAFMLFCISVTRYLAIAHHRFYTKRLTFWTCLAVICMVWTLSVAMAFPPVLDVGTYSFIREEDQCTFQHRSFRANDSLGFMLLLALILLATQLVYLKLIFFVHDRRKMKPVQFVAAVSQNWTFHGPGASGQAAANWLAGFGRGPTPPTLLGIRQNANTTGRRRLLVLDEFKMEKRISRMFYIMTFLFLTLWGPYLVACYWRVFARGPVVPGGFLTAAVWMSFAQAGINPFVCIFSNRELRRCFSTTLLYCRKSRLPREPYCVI
Glucagon-like peptide 1 receptor (Homo sapiens), sequence (P43220 whole entry): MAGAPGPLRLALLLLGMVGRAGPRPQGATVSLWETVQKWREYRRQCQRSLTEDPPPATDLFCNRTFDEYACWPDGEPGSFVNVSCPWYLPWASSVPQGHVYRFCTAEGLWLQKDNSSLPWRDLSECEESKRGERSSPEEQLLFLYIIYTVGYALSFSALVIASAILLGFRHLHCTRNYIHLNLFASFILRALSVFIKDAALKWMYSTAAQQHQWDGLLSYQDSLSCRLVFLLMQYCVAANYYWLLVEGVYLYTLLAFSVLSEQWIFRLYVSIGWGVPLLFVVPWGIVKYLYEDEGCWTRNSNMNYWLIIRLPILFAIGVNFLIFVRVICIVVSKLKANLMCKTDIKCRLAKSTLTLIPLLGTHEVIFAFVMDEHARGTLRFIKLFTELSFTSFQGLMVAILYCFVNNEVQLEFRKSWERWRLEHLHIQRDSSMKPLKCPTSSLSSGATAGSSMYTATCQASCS
Mas-related G-protein coupled receptor member E (Homo sapiens), sequence (Q86SM8 whole entry): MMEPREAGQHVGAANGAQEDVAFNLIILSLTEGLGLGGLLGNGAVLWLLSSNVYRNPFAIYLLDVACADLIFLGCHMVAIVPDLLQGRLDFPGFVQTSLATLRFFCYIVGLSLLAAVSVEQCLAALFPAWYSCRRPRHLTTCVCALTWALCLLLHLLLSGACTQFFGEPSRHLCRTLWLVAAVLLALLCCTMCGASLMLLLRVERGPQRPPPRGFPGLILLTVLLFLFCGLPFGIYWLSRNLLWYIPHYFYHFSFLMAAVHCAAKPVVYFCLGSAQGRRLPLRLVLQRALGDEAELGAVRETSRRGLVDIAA
Vasopressin V1a receptor (Homo sapiens), sequence (P37288 whole entry, looked up): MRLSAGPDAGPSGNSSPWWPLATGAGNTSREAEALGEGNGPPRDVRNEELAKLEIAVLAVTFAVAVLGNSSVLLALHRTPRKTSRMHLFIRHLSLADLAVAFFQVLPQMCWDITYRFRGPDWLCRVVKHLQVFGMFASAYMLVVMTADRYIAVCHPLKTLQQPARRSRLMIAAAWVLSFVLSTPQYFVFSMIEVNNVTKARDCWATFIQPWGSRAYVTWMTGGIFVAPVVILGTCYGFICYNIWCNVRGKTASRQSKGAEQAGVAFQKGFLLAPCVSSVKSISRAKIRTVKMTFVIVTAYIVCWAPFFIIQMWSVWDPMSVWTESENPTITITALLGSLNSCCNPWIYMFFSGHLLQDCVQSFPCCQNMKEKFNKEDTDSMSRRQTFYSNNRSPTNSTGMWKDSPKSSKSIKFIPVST

EC50 [1]: > 50 µM (not active)
RLU [2]: 8350
RLU [3]: -2730
RLU [4]: 2940
RLU [5]: 5670
RLU [6]: -688
RLU [7]: 2840
RLU [8]: -5260
RLU [9]: 5080
RLU [10]: 1630
RLU [11]: 1170
RLU [12]: 1350
RLU [13]: 2090
RLU [14]: -1060
RLU [15]: 3480
RLU [16]: -2660
RLU [17]: 6270
RLU [18]: 5570
RLU [19]: 14100
RLU [20]: 8730
RLU [21]: 868
RLU [22]: -4210
RLU [23]: 1530
RLU [24]: -7370
RLU [25]: 2610
RLU [26]: -3210
RLU [27]: -560
RLU [28]: 4940
RLU [29]: -114
RLU [30]: -34.4
RLU [31]: -311
RLU [32]: 1330
RLU [33]: -566
RLU [34]: 613
RLU [35]: 2920
Compound: CCCCC(=O)N1CC2(C1)CN(c1ccccc1-c1nnn[nH]1)C2
